# Test results as given in paper PMC7303061, “Alternaria toxins as casein kinase 2 inhibitors and possible consequences for estrogenicity: a hybrid in silico/in vitro study” (Archives of Toxicology, 2020).
# Where two headings read alike, the source gives them in different places.
# Experiments:
# casein kinase 2 (CK2α1) [1] = molecular target: T1, casein kinase 2 (CK2α1) (Homo sapiens, UniProt P68400); experiment: cell-free ADP-Glo kinase assay with recombinant CK2α[…] and casein, […] ATP; format: biochemical
# T1 construct: gene CSNK2A1; recombinant CK2α1
# T1 sequence (P68400 whole entry): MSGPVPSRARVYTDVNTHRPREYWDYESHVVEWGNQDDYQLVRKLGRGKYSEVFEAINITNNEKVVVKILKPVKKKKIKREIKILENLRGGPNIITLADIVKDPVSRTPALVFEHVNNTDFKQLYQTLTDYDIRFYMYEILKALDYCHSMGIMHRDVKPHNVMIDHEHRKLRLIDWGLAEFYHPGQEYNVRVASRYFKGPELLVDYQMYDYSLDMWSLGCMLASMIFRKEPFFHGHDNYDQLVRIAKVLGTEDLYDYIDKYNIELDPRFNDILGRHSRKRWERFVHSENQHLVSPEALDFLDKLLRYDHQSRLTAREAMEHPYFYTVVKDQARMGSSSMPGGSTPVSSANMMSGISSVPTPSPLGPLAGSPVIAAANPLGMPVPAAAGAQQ
# casein kinase 2 (CK2α1) [2] = molecular target: T1, casein kinase 2 (CK2α1); experiment: cell-free ADP-Glo kinase assay, single concentration ([…]) positive control; format: biochemical
structure (smiles),measurement,setting,value
"Cc1cc(O)cc2oc(=O)c3c(O)cc(O)cc3c12 [AOH, alternariol]",IC50,casein kinase 2 (CK2α1) [1],707 nM
"O=C1CC[C@]2(O)c3c(ccc(O)c31)-c1ccc(O)c3c1C2[C@H]1O[C@H]1C3=O (stereo partly drawn) [ATX-II, altertoxin II]",IC50,casein kinase 2 (CK2α1) [1]; read-out: IC50,5100 nM
"O=c1c(O)c(-c2ccc(O)c(O)c2)oc2cc(O)cc(O)c12 [QUE, quercetin]",inhibition at 10 µM,casein kinase 2 (CK2α1) [2],94%
